In PMC10534891, “Evaluation of 4-Aminoquinoline Hydrazone Analogues as Potential Leads for Drug-Resistant Malaria” (Molecules, 2023):
Like-named read-outs stand apart in the source and are kept apart here.

Assays:
[1] = tested on: P. falciparum K1 strain; assay: P. falciparum K1 asexual growth inhibition, 48 h, SYBR Green-based plate reader assay; format: cell-based, Plasmodium falciparum; settings: Plasmodium falciparum, K1, 48 h, read-out: Plasmodium IC50 ± SE
Procedure: Sixteen 4-amino-6-methoxy-quinoline hydrazone compounds (see Figure S1, Supplementary Materials for full structures), with methyl and phenyl substituents at the 2-position (R = Me, Ph) and various substituents at R’ (Table 1), were tested for their antimalarial activities. A 1% parasitised culture at the trophozoite stage was treated with the compounds for 48 h at concentrations of 0.003050–200 µM (four-fold serial dilution) against the P. falciparum K1 strain, and the growth was measured using the SYBR Green-based plate reader assay.
In total, 1% of infected RBCs at the ring or trophozoites stage was exposed to nine dilutions (four-fold serial dilution) of compounds from 50 mM stock solutions in DMSO. A total of 100 µL of culture volume was added in 96-well plates with 100 µL drug dilutions. Plates were either incubated for 48 h or 72 h at 37 °C, 5% CO2, 5% O2 in N2. Following the incubation, 150 µL of the medium was carefully removed and 150 µL of the 5× SYBR Green solution (prepared by adding 2 µL of 10,000× SYBR Green in 4 mL of PBS) was added to each well. Plates were kept in the dark for 45 min. Fluorescence intensity was measured using a microplate reader (Genius Tecan) with an excitation of 485 nm and an emission of 535 nm.
IC50 values were determined using Graph Pad Prism 5.0. Values were calculated using non-linear regression by using log-transformed drug concentration plotted against dose–response. Parasitaemia was calculated and normalised relative to the response on the controls (cultures without drug).

[2] = tested on: P. falciparum K1 strain; settings: read-out: IC50 (published data); published value for comparison; cited from earlier work

For `CCN(CC)CCCC(C)Nc1ccnc2cc(Cl)ccc12` (centres unmarked) [Chloroquine, reference compound], the IC50 [1] is given as 199 ± 40 nM and the IC50 [2] is given as 255 ± 49 nM.
